Like-named read-outs stand apart in the source and are kept apart here.
Tests used:
Escherichia coli = settings: pH 3; for Antimicrobial efficacy of treated fabric, E. coli: Orlon treated with 1 mMol/L compound, 10^5~10^6 CFU/mL; for Reduction percentage of E. coli: Orlon treated with 1 mMol/L dye
Procedure: (§1) The dyeing of acrylic fabrics follows a traditional exhaustion dyeing procedure (Munn, The dyeing of synthetic-polymer and acetate fibres, England: Dyers Company Publications Trust (1979)). Dye solutions were prepared with the QAS-dyes of the present invention, sodium sulfate (2 g/L), and Triton X-100 (0.05%). The pH of the dyeing bath was adjusted to 3 by buffer solutions containing sulfuric acid, sodium acetate, and acetic acid. The bath ratio was kept at 1:50. The Orlon fabrics were immersed into the dyeing bath at initial dyeing temperatures for a certain period of time, and then fixed at 100° C. for another period of time to elevate the interactions between the fabrics and the QAS-dyes.
(§2) The antimicrobial activities of the treated Orlon fabrics were evaluated against Escherichia coli (E. coli, Gram-negative) and Staphylococcus aureus (S. aureus, Gram-positive) according to AATCC test method 100-1999. In this method, disposable petri dishes containing fabric swatches weighing about 1 g were challenged with 1.0±0.1 mL of bacteria inoculum. After a certain period of contact time, the challenged fabric swatches were transferred to 250 mL containers with 100 mL of sterilized water, and the resultant supernatant was diluted 10^1, 10^2, 10^3, and 10^4 times. Then, 100 μL of each dilution was placed onto nutrient agar and incubated at 37° C. for 18 hours. The same procedure was applied to an untreated Orlon fabric swatch as a control. Finally, viable bacteria colonies on the agar plate were counted, and the amount of bacterial reduction was calculated using Eq. (2): Reduction percentage(%)=(A-B)/A×100%, (2) where A represents the number of bacterial colonies in the control, and B represents the number of bacterial colonies in the treated Orlon fabrics.
(§3) The surface resistivity of the treated fabrics was measured by a portable surface resistivity/resistance meter purchase from Monroe Electronics, Inc (Model 272A). The visual color yields of the dyed fabrics were measured by GretagMacbeth™ Color-Eye® 7000A spectrophotometer. The visual color yields of the fabrics were expressed by K/S values, which were derived from the reflectance measurement. The treated fabric was washed in a Launder-Ometer® according to AATCC Test Method 61-2001 to evaluate the wash durability of the treated fabrics. In this method, one cycle of a Launder-Ometer wash is equivalent to five machine washes using a home laundry machine.

Staphylococcus aureus = settings: Orlon treated with 1 mMol/L compound, pH 3, 10^5~10^6 CFU/mL, contact time 6 hrs
Procedure: as §1, §2, §3

[1] = for Relative hydrolytic stability among mono-QAS substituted dyes: acidic conditions, 100° C.
Procedure: Hydrolytic stability analysis: The dyes were dissolved in aqueous solutions at a concentration of 0.4-1 mMol/L, and the solutions were adjusted to various pH values by using sulfuric acid, acetic acid, sodium acetate, sodium bicarbonate, and/or sodium carbonate. The solutions were heated to the required temperatures. At different time intervals, solution samples were taken and measured by a HITACHI U-2000 spectrophotometer to obtain the UV-vis adsorption spectra. The results were compared with the spectra of original dye solutions to determine the stability of the dyes.
After hydrolysis, the precipitates formed in the dye solutions were filtered and thoroughly washed with deionized water. The resultant precipitates were recrystallized using acetone for NMR analysis. NMR spectra were recorded on a Varian Inova 400 spectrometer. The residual filtrate was extracted by chloroform, and the aqueous part was dried under vacuum at room temperature and analyzed by NMR.

[2] = DSC, 10° C./min, nitrogen
Procedure: Thermal stability analysis: Thermal analyses of the QAS-dyes shown in FIG. 2B were performed using a differential scanning calorimeter (DSC) (Shimadzu DSC-50) and a thermal gravimetric analyzer (TGA) (Shimadzu TGA-50). The dye samples were heated at 10° C./min. and nitrogen gas was chosen as the atmosphere.

CCCC[N+](C)(C)CC(=O)Nc1ccc(NC(=O)C[N+](C)(C)CCCC)c2c1C(=O)c1ccccc1C2=O.[Cl-].[Cl-] [bi-4]
Antimicrobial efficacy of treated fabric, E. coli (Escherichia coli; 0 washes, contact time 6 hrs): 97.1%
Antimicrobial efficacy of treated fabric, E. coli (Escherichia coli; 5 washes, contact time 6 hrs): 37.5%
Antimicrobial efficacy of treated fabric, E. coli (Escherichia coli; 10 washes, contact time 6 hrs): 0%
Antimicrobial efficacy of treated fabric, E. coli (Escherichia coli; 20 washes, contact time 6 hrs): 0%
Antimicrobial efficacy of treated fabric, S. aureus (Staphylococcus aureus; 0 washes): 87.5%
Antimicrobial efficacy of treated fabric, S. aureus (Staphylococcus aureus; 5 washes): 36.4%
Antimicrobial efficacy of treated fabric, S. aureus (Staphylococcus aureus; 10 washes): 0%
Antimicrobial efficacy of treated fabric, S. aureus (Staphylococcus aureus; 20 washes): 0%

CCCCCCCC[N+](C)(C)CC(=O)Nc1ccc(NC(=O)C[N+](C)(C)CCCCCCCC)c2c1C(=O)c1ccccc1C2=O.[Cl-].[Cl-] [bi-8]
Antimicrobial efficacy of treated fabric, E. coli (Escherichia coli; 0 washes, contact time 6 hrs): 98.6%
Antimicrobial efficacy of treated fabric, E. coli (Escherichia coli; 5 washes, contact time 6 hrs): 50.0%
Antimicrobial efficacy of treated fabric, E. coli (Escherichia coli; 10 washes, contact time 6 hrs): 46.7%
Antimicrobial efficacy of treated fabric, E. coli (Escherichia coli; 20 washes, contact time 6 hrs): 0%
Antimicrobial efficacy of treated fabric, S. aureus (Staphylococcus aureus; 0 washes): 93.9%
Antimicrobial efficacy of treated fabric, S. aureus (Staphylococcus aureus; 5 washes): 50.0%
Antimicrobial efficacy of treated fabric, S. aureus (Staphylococcus aureus; 10 washes): 37.5%
Antimicrobial efficacy of treated fabric, S. aureus (Staphylococcus aureus; 20 washes): 0%

CCCCCCCCCCCC[N+](C)(C)CC(=O)Nc1ccc(NC(=O)C[N+](C)(C)CCCCCCCCCCCC)c2c1C(=O)c1ccccc1C2=O.[Cl-].[Cl-] [bi-12]
Antimicrobial efficacy of treated fabric, E. coli (Escherichia coli; 0 washes, contact time 6 hrs): 99.9%
Antimicrobial efficacy of treated fabric, E. coli (Escherichia coli; 5 washes, contact time 6 hrs): 99.3%
Antimicrobial efficacy of treated fabric, E. coli (Escherichia coli; 10 washes, contact time 6 hrs): 60.0%
Antimicrobial efficacy of treated fabric, E. coli (Escherichia coli; 20 washes, contact time 6 hrs): 0%
Reduction percentage of E. coli (Escherichia coli; E. coli 10^5~10^6 CFU/mL, contact time 3 hrs): 93.3%
Reduction percentage of E. coli (Escherichia coli; E. coli 10^5~10^6 CFU/mL, contact time 6 hrs): 99.9%
Reduction percentage of E. coli (Escherichia coli; E. coli 10^5~10^6 CFU/mL, contact time 9 hrs): 93.3%
Reduction percentage of E. coli (Escherichia coli; E. coli 10^5~10^6 CFU/mL, contact time 12 hrs): 66.7%
Reduction percentage of E. coli (Escherichia coli; E. coli 10^6~10^7 CFU/mL, contact time 3 hrs): 92.5%
Reduction percentage of E. coli (Escherichia coli; E. coli 10^6~10^7 CFU/mL, contact time 6 hrs): 95.8%
Reduction percentage of E. coli (Escherichia coli; E. coli 10^6~10^7 CFU/mL, contact time 9 hrs): 83.3%
Reduction percentage of E. coli (Escherichia coli; E. coli 10^6~10^7 CFU/mL, contact time 12 hrs): 50%
Reduction percentage of E. coli (Escherichia coli; E. coli 10^7~10^8 CFU/mL, contact time 3 hrs): 86.7%
Reduction percentage of E. coli (Escherichia coli; E. coli 10^7~10^8 CFU/mL, contact time 6 hrs): 0%
Reduction percentage of E. coli (Escherichia coli; E. coli 10^7~10^8 CFU/mL, contact time 9 hrs): 0%
Reduction percentage of E. coli (Escherichia coli; E. coli 10^7~10^8 CFU/mL, contact time 12 hrs): 0%
Antimicrobial efficacy of treated fabric, S. aureus (Staphylococcus aureus; 0 washes): 99.9%
Antimicrobial efficacy of treated fabric, S. aureus (Staphylococcus aureus; 5 washes): 81.8%
Antimicrobial efficacy of treated fabric, S. aureus (Staphylococcus aureus; 10 washes): 45.5%
Antimicrobial efficacy of treated fabric, S. aureus (Staphylococcus aureus; 20 washes): 0%

CCCC[N+](C)(C)CC(=O)Nc1cccc2c1C(=O)c1ccccc1C2=O.[Cl-] [m-4]
Antimicrobial efficacy of treated fabric, E. coli (Escherichia coli; 0 washes, contact time 6 hrs): 95.7%
Antimicrobial efficacy of treated fabric, E. coli (Escherichia coli; 5 washes, contact time 6 hrs): 44.0%
Antimicrobial efficacy of treated fabric, E. coli (Escherichia coli; 10 washes, contact time 6 hrs): 0%
Antimicrobial efficacy of treated fabric, E. coli (Escherichia coli; 20 washes, contact time 6 hrs): 0%
Antimicrobial efficacy of treated fabric, S. aureus (Staphylococcus aureus; 0 washes): 86.4%
Antimicrobial efficacy of treated fabric, S. aureus (Staphylococcus aureus; 5 washes): 50.0%
Antimicrobial efficacy of treated fabric, S. aureus (Staphylococcus aureus; 10 washes): 0%
Antimicrobial efficacy of treated fabric, S. aureus (Staphylococcus aureus; 20 washes): 0%
Time the dye solution was stable (almost unchanged visible spectra) ([1]; 0.4 mMol/L, pH 5, 100° C.): about six
Temperature up to which no obvious changes are observed (dyes stable below) [2]: up to 190 °C

CCCCCCCC[N+](C)(C)CC(=O)Nc1cccc2c1C(=O)c1ccccc1C2=O.[Cl-] [m-8]
Antimicrobial efficacy of treated fabric, E. coli (Escherichia coli; 0 washes, contact time 6 hrs): 98.6%
Antimicrobial efficacy of treated fabric, E. coli (Escherichia coli; 5 washes, contact time 6 hrs): 44.0%
Antimicrobial efficacy of treated fabric, E. coli (Escherichia coli; 10 washes, contact time 6 hrs): 0%
Antimicrobial efficacy of treated fabric, E. coli (Escherichia coli; 20 washes, contact time 6 hrs): 0%
Antimicrobial efficacy of treated fabric, S. aureus (Staphylococcus aureus; 0 washes): 92.4%
Antimicrobial efficacy of treated fabric, S. aureus (Staphylococcus aureus; 5 washes): 37.5%
Antimicrobial efficacy of treated fabric, S. aureus (Staphylococcus aureus; 10 washes): 0%
Antimicrobial efficacy of treated fabric, S. aureus (Staphylococcus aureus; 20 washes): 0%
Relative hydrolytic stability among mono-QAS substituted dyes [1]: lower stability
Temperature up to which no obvious changes are observed (dyes stable below) [2]: up to 190 °C

CCCCCCCCCCCC[N+](C)(C)CC(=O)Nc1cccc2c1C(=O)c1ccccc1C2=O.[Cl-] [m-12]
Antimicrobial efficacy of treated fabric, E. coli (Escherichia coli; 0 washes, contact time 6 hrs): 99.9%
Antimicrobial efficacy of treated fabric, E. coli (Escherichia coli; 5 washes, contact time 6 hrs): 81.3%
Antimicrobial efficacy of treated fabric, E. coli (Escherichia coli; 10 washes, contact time 6 hrs): 0%
Antimicrobial efficacy of treated fabric, E. coli (Escherichia coli; 20 washes, contact time 6 hrs): 0%
Antimicrobial efficacy of treated fabric, S. aureus (Staphylococcus aureus; 0 washes): 99.9%
Antimicrobial efficacy of treated fabric, S. aureus (Staphylococcus aureus; 5 washes): 75.0%
Antimicrobial efficacy of treated fabric, S. aureus (Staphylococcus aureus; 10 washes): 0%
Antimicrobial efficacy of treated fabric, S. aureus (Staphylococcus aureus; 20 washes): 0%
Relative hydrolytic stability among mono-QAS substituted dyes [1]: lowest stability
Temperature up to which no obvious changes are observed (dyes stable below) [2]: up to 190 °C

— patent US20050011012A1, “Multifunctional antimicrobial dyes” (Regents of the University of California, priority 2003, published 2005)
